Laboratory results taken from patent US20260102407A1, “TREATMENT METHODS” (priority 2020, published 2026).

How the values were obtained:
FosB = assay: Matrigel plug assay, FosB staining; type: in vivo; settings: C57BL/6 mice; 2.5 mg/mouse; 7 days
Experimental: Matrigel plug assay. Matrigel (500 μl) containing VEGF-A165 (100 ng/ml), heparin (10U) and BT2 or BT3 (2.5 mg/mouse) or its vehicle (saline containing 0.01% DMSO and 0.5% Tween 80) was injected subcutaneously into the left flanks of male 8 week-old C57BL/6 mice. After 7d the mice were sacrificed by CO2 asphyxiation and the plugs carefully removed. Formalin-fixed paraffin embedded sections were prepared from Matrigel plugs for immunohistological assessment. Heat-induced epitope retrieval was applied to all deparaffinized sections (4 μm Superfrost slides) in citrate buffer, pH 6 for 5 min at 110° C. Immunostaining for all groups with a given antibody was performed simultaneously and development time was identical. […]
Slides were scanned using an Aperio ScanScope XT slide scanner (Leica Biosystems, Mt Waverley, Vic Australia) and images captured using ImageScope software (Leica Biosystems). Positive intraplug staining was assessed using Image-Pro Plus software (Cybernetics, Bethesda, MD) in 5-12 randomly selected fields of view for each plug photographed under 10× (CD31), 20× (VCAM-1) and 40× (FosB) objectives and expressed as integrated optical density (IOD, the product of calibrated intensity (optical density) and area, i.e. IOD=intensity (mean)×area) (Media Cybernetics) (Liu, H., et al., Sci Rep 6, 21319 (2016)). […]

p-SAPK/JNK = assay: Western blot, IL-1β-inducible p-SAPK/JNK in HMEC-1; type: cell-based, human; settings: 1-30 μM
Experimental: Western blot analysis with extracts of cells treated with IL-13. HMEC-1 (80-90% confluency) were arrested in serum-free MCDB131 medium (Invitrogen, MD) without any growth factor for 48 h. Cells were treated with 30 μM compound in serum-free medium for 4 h, and incubated with 20 ng/ml IL-1β (Sigma, cat. SRE3083) in serum-free medium with the same concentration of compound for up to 4 h, unless otherwise indicated. Total protein was harvested as previously described using RIPA buffer with protease inhibitors. Proteins were resolved on 4-20% (w/v) SDS-polyacrylamide gradient gels and transferred to Immobilon-P PVDF membranes. […] Chemiluminescence was detected using the Western Lightning Chemiluminescence system and ImageQuant™ LAS 4000 biomolecular imager. Band intensity in images generated with the LAS 4000 using the same settings were quantified by NIH ImageJ.

genes induced by IL-1β = assay: RNA-seq of IL-1β-treated HMEC-1; type: cell-based, human; settings: 30 μM, 20 ng/ml IL-1β 4 h
Experimental: RNA-seq. HMEC-1 were seeded into nine 100 mm petri dishes with complete MCDB131 medium containing 10% FBS. At 70-80% confluency, cells were growth-arrested with serum-free MCDB131 medium with no hydrocortisone or EGF for 44 h. Cells were pre-treated with 30 μM BT2 in the same medium for 4 h then stimulated with 20 ng/mL IL-1β for a further 4 h. Total RNA was extracted using RNeasy Mini Kit (Qiagen, Amtsgericht Dusseldorf) with modification. Briefly, cells were washed twice with pre-cooled 1×PBS and TRIzol (Thermo Fisher Sci, Waltham, MA) was added to lyze the cells. Chloroform was added to the mixture prior to centrifugation at 13000 rpm for 15 min at 4° C. Upper aqueous layer containing total RNA was transferred to fresh microtubes and isopropanol was added and loaded into RNeasy column. Columns were washed with Buffers RW1 and RPE. Total RNA was eluted from the column using RNAse-free water. Samples were submitted to The Ramaciotti Centre for Genomics (UNSW, Australia) for TruSeq Stranded mRNA-seq preparation and sequencing by One NextSeq 500 1×75 bp High Output flowcell with data output up to 400M reads. Quality control of samples was set at >80% higher than Q30 at 1×75 bp.
RNA-seq reads were first assessed for quality using the tool FastQC (v0.11.8) (On the World-Wide-Web at: bioinformatics.babraham.ac.uk/projects/fastqc/). The tool Salmon was used for quantifying transcript abundance from RNA-seq reads (Patro, R., et al., Nat Methods 14, 417-419 (2017)). The R package DESeq2 (Love, M. I., et al., Genome Biol 15, 550 (2014)) that incorporates a method for differential analysis of count data was then used to identify differentially expressed genes across specific comparisons. The heatmap.2 function from the R package gplots v3.0.1.1 was used to generate heatmaps using counts per million (cpm) values for sets of genes of interest. The database for annotation, visualization and integrated discovery (DAVID) (Jiao, X., et al., Bioinformatics 28, 1805-1806 (2012)), a web-based online bioinformatics resource was used to identify the gene ontologies such as biological processes (BP) found to be enriched for lists of differentially expressed genes for specific comparisons.

## CCOC(=O)Nc1ccc2c(c1)C(=O)N(CC)c1ccccc1O2 [BT2, (10-ethyl-11-oxo-10,11-dihydro-dibenzo[b,f][1,4]oxazepin-2-yl)-carbamic acid ethyl ester]
FosB
  FosB immunoreactivity in Matrigel plugs: inhibited
p-SAPK/JNK
  IL-1β-inducible p-SAPK/JNK: no effect
Genes induced by IL-1β
  IL-1β-inducible FosB and VCAM-1 expression (RNA-seq): suppress IL-1β-inducible FosB and VCAM-1 expression
  expression of other regulatory genes including ICAM-1, CXCL2, KLF5, Egr-1 and Fos (RNA-seq): inhibited a range of other regulatory genes
  number of the 325 IL-1β-induced genes (log FC≥2) inhibited (log FC≥2): 89
  proportion of the 325 IL-1β-induced genes inhibited: 27.5%
